Results published in paper PMC12040169 (PLOS Biology, 2025).

Experiment: in vitro
Conditions: human, hela cells, % viability
With `Cc1c(C)n(O)[n+]([O-])c1-c1ccccc1` [CBK264510N] the viability at 28.5 h, 10 µM was 103%. For `CN(C)S(=O)(=O)c1ccc(Cl)c(C(=O)Nc2cccc([N+](=O)[O-])c2)c1` [CBK265721], the viability at 28.5 h, 10 µM was 103%. With `COc1ccccc1CC(=O)Nc1ncccc1OCCCC#N` [CBK304952] the viability at 28.5 h, 10 µM was 91%. For `COc1cc(OC)nc(C(NC(=O)C2CCN(CCN3C(=O)c4ccccc4C3=O)CC2)c2ccc(F)cc2)n1` (stereo not shown) [CBK148083], the viability at 28.5 h, 10 µM was 103%. Work on `CCOC(=O)c1[nH]c2ccccc2c1NC(=O)CN1C(=O)CSC1=O` [CBK160163] yielded a viability at 28.5 h, 10 µM of 102%. With `CCC(CC)C(=O)N1c2ccccc2C(C)(c2ccccc2)CC1(C)C` (stereo not shown) [CBK073862] the viability at 28.5 h, 10 µM was 91.5%. `O=C(Nc1cccc(C(F)(F)F)c1)Nc1cccc(S(=O)(=O)N2CCOCC2)c1` [CBK267043] gave a viability at 28.5 h, 10 µM of 99%. In the case of `Cc1c(F)cccc1CN(CC(C)(C)CN)C(=O)Nc1ccc2c(c1)OCO2` [CBK002486C], the viability at 28.5 h, 10 µM is reported as 87.9%. With `O=C(C1CC1)N1C[C@@H](c2ccccc2)[C@H](c2cc(C(F)F)[nH]n2)C1` [CBK284791] the viability at 28.5 h, 10 µM was 91.1%. `c1ccc(Cc2csc(C3CN4CCCC4CO3)n2)cc1` (stereo not shown) [CBK304202] showed a viability at 28.5 h, 10 µM of 90.2%. Compound `CC(=O)Nc1cccc(-c2nccnc2NS(C)(=O)=O)c1` [CBK050740] has a viability at 28.5 h, 10 µM of 108%. `Cc1cnn(CC(=O)NC(Cc2ccsc2)c2nc(C)cs2)c1` (stereo not shown) [CBK285151] showed a viability at 28.5 h, 10 µM of 86.6%. With `OCCN1CC2(CCN(Cc3cccc(Oc4ccccc4)c3)CC2)c2ccccc21` [CBK131528] the viability at 28.5 h, 10 µM was 88.7%. `Cc1cc(C)nc(SCC(=O)Nc2cc(C(=O)O)cc([N+](=O)[O-])c2)n1` [CBK268937] gave a viability at 28.5 h, 10 µM of 86.8%. Compound `Clc1cccc(CN2CCC(N3CCN(c4ccccc4)CC3)CC2)c1` [CBK264690G] has a viability at 28.5 h, 10 µM of 98.7%. In the case of `O=C(Cc1ccc(Cl)cc1Cl)Nc1ccc2ncccc2c1` [CBK159787], the viability at 28.5 h, 10 µM is reported as 91.5%. Work on `COc1ccc(-n2c(Cc3ccccc3)nnc2SCC(=O)c2ccccc2)cc1` [CBK265989] yielded a viability at 28.5 h, 10 µM of 105%. Compound `O=c1[nH]c2ccc(Cl)cc2c(-c2ccccc2)c1N1CCN(Cc2ccc3c(c2)OCO3)CC1` [CBK265776] has a viability at 28.5 h, 10 µM of 92.3%. `CCN1CCN(c2ccc(NC(=O)c3cccc(OCc4ccccc4)c3)cc2)CC1` [CBK266471] gave a viability at 28.5 h, 10 µM of 95%. With `Nc1ncc(-c2cccc(O)c2)nc1-c1ccc(C=O)cc1` [CBK064088] the viability at 28.5 h, 10 µM was 104%. `Cc1ccc(C2=NN(c3ccccc3)C(c3cn(CCC(=O)O)nc3-c3ccccc3)C2)cc1` (stereo not shown) [CBK296110] showed a viability at 28.5 h, 10 µM of 107%. `COc1ccc2nc(NC(=O)c3cccc(N4C(=O)CCC4=O)c3)sc2c1` [CBK287351] showed a viability at 28.5 h, 10 µM of 108%. `CN(C)CCNC(=O)c1ccc(-c2cnc(OCC3CCN(C(=O)OC(C)(C)C)CC3)nc2)cc1` [CBK167544] gave a viability at 28.5 h, 10 µM of 89.8%. `COc1ncc(-c2cc(N3CCN(CCN(C)C)CC3)n3nccc3n2)c(OC)n1` [CBK037033] gave a viability at 28.5 h, 10 µM of 87.7%. `O=C1NC2=C(C(=O)N(CCN3CCCC3)C2)C(c2cccc(F)c2)N1` (stereo not shown) [CBK282365] gave a viability at 28.5 h, 10 µM of 105%. In the case of `COC(=O)c1ccc2c(=O)n(CC(C)O)c(SC)nc2c1` (stereo not shown) [CBK305018], the viability at 28.5 h, 10 µM is reported as 88%. In the case of `Nc1nnc(SCCC(=O)N2CCN(c3ccc(F)cc3)CC2)s1` [CBK304597], the viability at 28.5 h, 10 µM is reported as 84.7%. For `CCCC/C=C/c1cncc(NCc2cccc(Cl)c2)n1` [CBK065293], the viability at 28.5 h, 10 µM was 97.3%. In the case of `COc1ccc(OC)c(C2C(C(=O)c3ccc(C)cc3)=C(O)C(=O)N2Cc2cccnc2)c1` (stereo not shown) [CBK264492], the viability at 28.5 h, 10 µM is reported as 113%. Compound `Cc1cccnc1Nc1ccc(C2CCCN(C(=O)Cc3c[nH]c4ccccc34)C2)nc1` (stereo not shown) [CBK285968] has a viability at 28.5 h, 10 µM of 97.7%. `CC(SCc1ccccc1)C(=O)NCC1CCN(c2ccccc2)C1` (stereo not shown) [CBK298329] gave a viability at 28.5 h, 10 µM of 89.5%. Work on `Nc1ncc(-c2ccc(C(=O)N3CCOCC3)cc2)cc1C(=O)Nc1ccncc1` [CBK160202] yielded a viability at 28.5 h, 10 µM of 93.6%. With `O=C(N/N=C/c1ccccc1)c1ccccn1` [CBK261640] the viability at 28.5 h, 10 µM was 92.8%. Compound `C/C(=C1/SC(=S)N(CCC(=O)O)C1=O)c1ccc(O)cc1` [CBK265171] has a viability at 28.5 h, 10 µM of 102%.
